Active and inactive are the calls of the source. No rule for the calls is given here.
Tested on: CCRIS mutagenicity, Ames/micronucleus/aberration tests
Assay: CCRIS mutagenicity studies

Question: Which results are given for `CC1(C)COC1=O`?
Answer: mutagenic call (Test System: AMES SALMONELLA TYPHIMURIUM, Strain/Indicator: TA1537, Metabolic Activation: HAMSTER, LIVER, S-9, Method: STANDARD PLATE): inactive; negative; mutagenic call (Test System: AMES SALMONELLA TYPHIMURIUM, Strain/Indicator: TA1537, Metabolic Activation: MOUSE, LIVER, S-9, AROCLOR 1254, Method: PREINCUBATION): inactive; negative; mutagenic call (Test System: AMES SALMONELLA TYPHIMURIUM, Strain/Indicator: TA1537, Metabolic Activation: MOUSE, LIVER, S-9, AROCLOR 1254, Method: STANDARD PLATE): inactive; negative; mutagenic call (Test System: AMES SALMONELLA TYPHIMURIUM, Strain/Indicator: TA1537, Metabolic Activation: MOUSE, LIVER, S-9, Method: PREINCUBATION): inactive; negative; mutagenic call (Test System: AMES SALMONELLA TYPHIMURIUM, Strain/Indicator: TA1537, Metabolic Activation: MOUSE, LIVER, S-9, Method: STANDARD PLATE): inactive; negative; mutagenic call (Test System: AMES SALMONELLA TYPHIMURIUM, Strain/Indicator: TA1537, Metabolic Activation: NONE, Method: PREINCUBATION): inactive; negative; mutagenic call (Test System: AMES SALMONELLA TYPHIMURIUM, Strain/Indicator: TA1537, Metabolic Activation: NONE, Method: STANDARD PLATE): inactive; negative; mutagenic call (Test System: AMES SALMONELLA TYPHIMURIUM, Strain/Indicator: TA1537, Metabolic Activation: RAT, LIVER, S-9, AROCLOR 1254, Method: PREINCUBATION): inactive; negative; mutagenic call (Test System: AMES SALMONELLA TYPHIMURIUM, Strain/Indicator: TA1537, Metabolic Activation: RAT, LIVER, S-9, AROCLOR 1254, Method: STANDARD PLATE): inactive; negative; mutagenic call (Test System: AMES SALMONELLA TYPHIMURIUM, Strain/Indicator: TA1537, Metabolic Activation: RAT, LIVER, S-9, Method: PREINCUBATION): inactive; negative; mutagenic call (Test System: AMES SALMONELLA TYPHIMURIUM, Strain/Indicator: TA1537, Metabolic Activation: RAT, LIVER, S-9, Method: STANDARD PLATE): inactive; negative; mutagenic call (Test System: AMES SALMONELLA TYPHIMURIUM, Strain/Indicator: TA1538, Metabolic Activation: HAMSTER, LIVER, S-9, AROCLOR 1254, Method: PREINCUBATION): inactive; negative; mutagenic call (Test System: AMES SALMONELLA TYPHIMURIUM, Strain/Indicator: TA1538, Metabolic Activation: HAMSTER, LIVER, S-9, AROCLOR 1254, Method: STANDARD PLATE): inactive; negative; mutagenic call (Test System: AMES SALMONELLA TYPHIMURIUM, Strain/Indicator: TA1538, Metabolic Activation: HAMSTER, LIVER, S-9, Method: PREINCUBATION): inactive; negative; mutagenic call (Test System: AMES SALMONELLA TYPHIMURIUM, Strain/Indicator: TA1538, Metabolic Activation: HAMSTER, LIVER, S-9, Method: STANDARD PLATE): inactive; negative; mutagenic call (Test System: AMES SALMONELLA TYPHIMURIUM, Strain/Indicator: TA1538, Metabolic Activation: MOUSE, LIVER, S-9, AROCLOR 1254, Method: PREINCUBATION): inactive; negative; mutagenic call (Test System: AMES SALMONELLA TYPHIMURIUM, Strain/Indicator: TA1538, Metabolic Activation: MOUSE, LIVER, S-9, AROCLOR 1254, Method: STANDARD PLATE): inactive; negative; mutagenic call (Test System: AMES SALMONELLA TYPHIMURIUM, Strain/Indicator: TA1538, Metabolic Activation: MOUSE, LIVER, S-9, Method: PREINCUBATION): inactive; negative; mutagenic call (Test System: AMES SALMONELLA TYPHIMURIUM, Strain/Indicator: TA1538, Metabolic Activation: MOUSE, LIVER, S-9, Method: STANDARD PLATE): inactive; negative; mutagenic call (Test System: AMES SALMONELLA TYPHIMURIUM, Strain/Indicator: TA1538, Metabolic Activation: NONE, Method: PREINCUBATION): inactive; negative; mutagenic call (Test System: AMES SALMONELLA TYPHIMURIUM, Strain/Indicator: TA1538, Metabolic Activation: NONE, Method: STANDARD PLATE): inactive; negative; mutagenic call (Test System: AMES SALMONELLA TYPHIMURIUM, Strain/Indicator: TA1538, Metabolic Activation: RAT, LIVER, S-9, AROCLOR 1254, Method: PREINCUBATION): inactive; negative; mutagenic call (Test System: AMES SALMONELLA TYPHIMURIUM, Strain/Indicator: TA1538, Metabolic Activation: RAT, LIVER, S-9, AROCLOR 1254, Method: STANDARD PLATE): inactive; negative; mutagenic call (Test System: AMES SALMONELLA TYPHIMURIUM, Strain/Indicator: TA1538, Metabolic Activation: RAT, LIVER, S-9, Method: PREINCUBATION): inactive; negative; mutagenic call (Test System: AMES SALMONELLA TYPHIMURIUM, Strain/Indicator: TA1538, Metabolic Activation: RAT, LIVER, S-9, Method: STANDARD PLATE): inactive; negative; mutagenic call (Test System: E. COLI, Strain/Indicator: WP2 UVRA, Metabolic Activation: HAMSTER, LIVER, S-9, AROCLOR 1254, Method: PREINCUBATION): active; positive; mutagenic call (Test System: E. COLI, Strain/Indicator: WP2 UVRA, Metabolic Activation: HAMSTER, LIVER, S-9, Method: PREINCUBATION): active; positive; mutagenic call (Test System: E. COLI, Strain/Indicator: WP2 UVRA, Metabolic Activation: MOUSE, LIVER, S-9, AROCLOR 1254, Method: PREINCUBATION): active; positive; mutagenic call (Test System: E. COLI, Strain/Indicator: WP2 UVRA, Metabolic Activation: NONE, Method: PREINCUBATION): active; positive; mutagenic call (Test System: E. COLI, Strain/Indicator: WP2 UVRA, Metabolic Activation: RAT, LIVER, S-9, AROCLOR 1254, Method: PREINCUBATION): active; positive; mutagenic call (Test System: E. COLI, Strain/Indicator: WP2 UVRA, Metabolic Activation: RAT, LIVER, S-9, Method: PREINCUBATION): active; positive

Source: PubChem BioAssay AID1259407 (Chemical Carcinogenesis Research Information System (CCRIS), 2018)
